# Experimental data taken from patent US6214969A, “Luteinizing hormone releasing hormone analogs with cytotoxic moiety” (The Administrators of the Tulane Educational Fund, priority 1993, dated 2001).
# Key:
# [1] = system: human mammary cell line MDA-MB-231; settings: 10 μg dose; cited from earlier work
# [2] = target: T1, membrane receptors of human breast cancer cells (LHRH receptors) (Homo sapiens, UniProt P30968); experiment: Receptor binding affinity for human breast cancer cell membranes, 125I-[D-Trp]6 LHRH as labelled ligand; settings: 125I-[D-Trp]6 LHRH ligand, NB = no binding
# T1 construct: from tissue
# T1 sequence (P30968 1-328): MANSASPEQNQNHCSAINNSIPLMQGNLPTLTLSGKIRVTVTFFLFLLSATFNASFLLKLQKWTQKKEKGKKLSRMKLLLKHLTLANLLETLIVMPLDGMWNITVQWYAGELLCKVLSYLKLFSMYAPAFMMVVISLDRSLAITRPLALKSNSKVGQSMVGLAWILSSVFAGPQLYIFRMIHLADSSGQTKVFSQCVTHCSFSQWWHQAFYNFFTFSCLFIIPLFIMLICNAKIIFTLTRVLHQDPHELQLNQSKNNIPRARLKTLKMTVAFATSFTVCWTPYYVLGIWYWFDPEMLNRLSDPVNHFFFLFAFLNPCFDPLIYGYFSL
# Protocol: Affinity for peptides to human breast cancer cell membranes is determined by using labelled LHRH and [D-Trp^6 ]LHRH. The assay is carried out similarly to that described by T. Kadar et al., Proc. Natl. Acad. Sci. USA, 85, 890-894 (1988) and M. Fekete et al., Endocrinology, 124, 946-955 (1989).
# (§1) Table 2 presents the antiovulatory activity and human breast cancer cell membrane receptor binding affinity of the claimed compounds having LHRH-inhibiting properties. The inhibitory action was determined in vivo, in 4-day cycling rats as described [A. Corbin and C. W. Beattie, Endocr. Res. Commun., 2, 1-23 (1975)].
# [3] = system: T47D Cell line; experiment: Inhibition of 3H-thymidine incorporation into DNA, T47D; format: cell-based, human
# Protocol: (§2) 200,000 cells in 200 μl of […]+2% CFBS were incubated with 1, 5 or 10 μg cytotoxic analogs for 3 hours or 23 hours then 1 μCi ^3 H-thymidine added and incubated an additional 60 min. DNA extracted with 1 N perchloric acid and the radioactivity measured.
# [4] = system: MDA-MB-231 Cell Line; experiment: Inhibition of 3H-thymidine incorporation into DNA, MDA-MB-231; format: cell-based, human
# Protocol: as §2
# [5] = system: SkBr-3 Cell line; experiment: Inhibition of 3H-thymidine incorporation into DNA, SkBr-3; format: cell-based, human
# Protocol: as §2
# [6] = system: ovulation in 4-day cycling rats; experiment: In vivo antiovulatory activity in 4-day-cycling rats; settings: 10 μg per rat
# Protocol: This activity of the peptides is determined in 4-day-cycling rats as described [A. Corbin and C. W. Beattie, Endocr. Res. Commun., 2, 1-23 (1975)].
# as §1
# [7] = system: MCF-7 human breast cancer cell line; experiment: Inhibition of 3H-thymidine incorporation into DNA, MCF-7; format: cell-based
# Protocol: Ability of peptides of Formula I to inhibit incorporation of [^3 H]thymidine into DNA of monolayer cultures the human mammary tumor cell line MCF-7 is assayed as described [V. K. Sondak et al., Cancer Research, 44, 1725-1728 (1984); F. Holzel et al., J. Cancer Res. Clin. Oncol. 109, 217-226 (1985); M. Albert et al., J. Cancer Res. Clin. Oncol. 109, 210-216 (1985)].
# as §2
# [8] = system: dispersed rat pituitary cells (LH release); experiment: LH-releasing activity in superfused rat pituitary cell system; format: cell-based; settings: Table 1; compared to that produced by 3 nM LH-RH; peptide infused 3 min
# Source text: B. Greenstein, Harwood Academic Publishers, London, (1990)].
substance,measurement,setting,value
pGlu-His-Trp-Ser-Tyr-D-Lys[Ahx-A2 bu(SAL)2 (Cu)]-Leu-Arg-Pro-Gly-NH2,inhibition of [3H]thymidine incorporation into DNA,[1],87%
Ac-D-Nal(2)-D-Phe(4Cl)-D-Trp-Ser-Tyr-D-Lys(MTX)-Leu-Arg-Pro-D-Ala-NH2 [compound 18],Affinity Constant Ka1,[2]; Table 2 (antagonists),3.58 nM⁻¹
same,Affinity Constant Ka2,[2]; Table 2 (antagonists),1.07 µM⁻¹
pGlu-His-Trp-Ser-Tyr-D-Lys(MTX)-Leu-Arg-Pro-Gly-NH2 [compound 4],% Inhibition at 4 hrs,[3]; dose 1 μg/ml,38%
same,% Inhibition at 24 hrs,[3]; dose 1 μg/ml,26%
same,% Inhibition at 4 hrs,[3]; dose 10 μg/ml,54%
same,% Inhibition at 24 hrs,[3]; dose 10 μg/ml,41%
same,% Inhibition at 4 hrs,[4]; dose 1 μg/ml,23%
same,% Inhibition at 24 hrs,[4]; dose 1 μg/ml,0%
same,% Inhibition at 4 hrs,[4]; dose 10 μg/ml,31%
same,% Inhibition at 24 hrs,[4]; dose 10 μg/ml,8%
same,% Inhibition at 4 hrs,[5]; dose 1 μg/ml,21%
same,% Inhibition at 24 hrs,[5]; dose 1 μg/ml,16%
same,% Inhibition at 4 hrs,[5]; dose 10 μg/ml,36%
same,% Inhibition at 24 hrs,[5]; dose 10 μg/ml,10%
Ac-D-Nal(2)-D-Phe(4Cl)-D-Trp-Ser-Tyr-D-Lys(D-Mel)-Leu-Arg-Pro-D-Ala-NH. sub.2 [compound 15],Affinity Constant Ka1,[2]; Table 2 (antagonists),3.58 nM⁻¹
same,% Ovulation Blocked,[6],100%
pGlu-His-Trp-Ser-Tyr-D-Lys(MTX)-Leu-Arg-Pro-Gly-NH2 [4B],Affinity Constant Ka1,[2]; Table 1 (agonists),0.63 nM⁻¹
Ac-D-Nal(2)-D-Phe(4Cl)-D-Pal(3)-Ser-Arg-D-Lys(MTX)-Leu-Arg-Pro-D-Ala-NH. sub.2 [compound 29],Affinity Constant Ka1,[2]; Table 2 (antagonists),0.44 nM⁻¹
same,Affinity Constant Ka2,[2]; Table 2 (antagonists),1.04 µM⁻¹
same,% Ovulation Blocked,[6],100%
same,% Inhibition at 24 hrs,[7]; dose 1 μg/ml,10%
same,% Inhibition at 24 hrs,[7]; dose 10 μg/ml,16%
pGlu-His-Trp-Ser-Tyr-D-Lys(MTX)-Leu-Arg-Pro-Gly-NH2 [4A],Affinity Constant Ka1,[2]; Table 1 (agonists),5.42 nM⁻¹
same,Affinity Constant Ka2,[2]; Table 1 (agonists),1.59 µM⁻¹
pGlu-His-Trp-Ser-Tyr-D-Orn(MTX)-Leu-Arg-Pro-Gly-NH2 [compound 11],% Inhibition at 4 hrs,[7]; dose 1 μg/ml,34%
same,% Inhibition at 24 hrs,[7]; dose 1 μg/ml,7%
same,% Inhibition at 4 hrs,[7]; dose 10 μg/ml,29%
same,% Inhibition at 24 hrs,[7]; dose 10 μg/ml,3%
pGlu-His-Trp-Ser-Tyr-D-Lys(Glt-DOX)-Leu-Arg-Pro-Gly-NH2 [compound 33],Relative Activity (LH-releasing activity),[8],12
same,Affinity Constant Ka2,[2]; Table 1 (agonists),14.4 µM⁻¹
same,% Inhibition at 4 hrs,[7]; dose 1 μg/ml,19%
same,% Inhibition at 24 hrs,[7]; dose 1 μg/ml,0%
same,% Inhibition at 4 hrs,[7]; dose 5 μg/ml,34%
same,% Inhibition at 24 hrs,[7]; dose 5 μg/ml,61%
same,% Inhibition at 4 hrs,[3]; dose 1 μg/ml,32%
same,% Inhibition at 24 hrs,[3]; dose 1 μg/ml,11%
same,% Inhibition at 4 hrs,[3]; dose 10 μg/ml,44%
same,% Inhibition at 24 hrs,[3]; dose 10 μg/ml,10%
same,% Inhibition at 4 hrs,[4]; dose 1 μg/ml,20%
same,% Inhibition at 24 hrs,[4]; dose 1 μg/ml,0%
same,% Inhibition at 4 hrs,[4]; dose 10 μg/ml,9%
same,% Inhibition at 24 hrs,[4]; dose 10 μg/ml,0%
same,% Inhibition at 4 hrs,[5]; dose 1 μg/ml,27%
same,% Inhibition at 24 hrs,[5]; dose 1 μg/ml,0%
same,% Inhibition at 4 hrs,[5]; dose 10 μg/ml,24%
same,% Inhibition at 24 hrs,[5]; dose 10 μg/ml,14%
Ac-D-Nal(2)-D-Phe(4Cl)-D-Trp-Ser-Arg-D-Lys(D-Mel)-Leu-Arg-Pro-D-Ala-NH. sub.2 [compound 19],Affinity Constant Ka2,[2]; Table 2 (antagonists),32.54 µM⁻¹
same,% Ovulation Blocked,[6],40%
same,% Inhibition at 24 hrs,[7]; dose 1 μg/ml,34%
same,% Inhibition at 24 hrs,[7]; dose 10 μg/ml,49%
pGlu-His-Trp-Ser-Tyr-D-Lys[Ahx(MTX)]-Leu-Arg-Pro-Gly-NH2 [compound 34],Relative Activity (LH-releasing activity),[8],6.7
same,Affinity Constant Ka1,[2]; Table 1 (agonists),4.42 nM⁻¹
same,% Inhibition at 24 hrs,[7]; dose 1 μg/ml,16%
same,% Inhibition at 24 hrs,[7]; dose 10 μg/ml,21%
